Measurements from US20220331371A1, “DEVELOPMENT OF EMBRYONIC-LIKE TISSUE FROM STEM CELLS” (The Regents of the University of Michigan, priority 2019, published 2022).

Key:
[1] = system: human ES cells co-cultured with Transwell-AMLCs; test: Transwell co-culture assay of AMLCs and human ES cells; type: cell-based; conditions: 5 μM in Transwell co-culture, 48 h
Experimental: Immunocytochemistry. hPSCs were fixed in 4% paraformaldehyde (PFA; buffered in 1× PBS) for 12 h, and permeabilized in 0.1% SDS solution (sodium dodecyl sulphate, dissolved in PBS) for another 3 h. Samples were then blocked in 4% donkey serum (Sigma-Aldrich) at 4° C. for 24 h, followed by incubation with primary antibody solutions at 4° C. for another 24 h. Samples were then labelled with donkey-raised secondary antibodies (1:500 dilution) at 4° C. for 24 h, 4,6-diamidino-2-phenylindole (DAPI; Thermo Fisher Scientific) was used for counterstaining cell nuclei. Alexa Fluor dye-conjugated WGA (Thermo Fisher Scientific) and phalloidin (Invitrogen) were used for visualization of cell membrane and actin microfilaments, respectively. Both primary and secondary antibodies were prepared in 4% donkey serum supplemented with 0.1% NaN3. Seventy microlitre antibody solutions were added to each medium reservoir for immunostaining. The asymmetric embryonic-like sac structure was assessed by immunocytochemistry to confirm molecular asymmetry at t=36 h (for P-ELS: co-staining for TFAP2A and T; for A-ELS: co-staining for TFAP2A and NANOG). In situ hybridization. […] For morphogenetic quantification, bright-field or phase-contrast images were acquired using a Zeiss Observer Z1 microscope (Carl Zeiss MicroImaging) equipped with a monochrome CCD camera (AxioCam, Carl Zeiss MicroImaging). […]

[2] = system: PrePS-EPI-like cells in P-ELS; test: Posterior primitive streak-like cell development in P-ELS with antagonists in the induction channel; type: cell-based, human
Excerpt: Cell lines. hPSC lines used in this study include H1 human ES cell (WA01, WiCell; NIH registration number: 0043), H9 human ES cell (WA09, WiCell; NIH registration number: 0062) and 1196a (a human iPSC line from the University of Michigan Pluripotent Stem Cell Core31). All hPSC lines have been authenticated by original sources as well as in-house by immunostaining for pluripotency markers and successful differentiation to the three germ layers. All hPSC lines are maintained in a feeder-free system for at least ten passages and authenticated as karyotypically normal. Karyotype analysis was performed by Cell Line Genetics. All hPSC lines are tested negative for mycoplasma contamination (LookOut Mycoplasma PCR Detection Kit, Sigma-Aldrich). Cell culture. hPSCs were maintained in a standard feeder-free culture system using mTeSR medium (mTeSR; STEMCELL Technologies) or TeSR-E8 medium (Essential 8 or E8; STEMCELL Technologies) and lactate dehydrogenase-elevating virus (LDEV)-free, human ES cell-qualified reduced growth factor basement membrane matrix Geltrex (Thermo Fisher Scientific; derived from Engelbreth-Holm-Swarm tumors similarly to Matrigel). Cell cultures were visually examined during each passage to ensure absence of spontaneously differentiated, mesenchymal-like cells in culture. All hPSCs were used before reaching P70. Device fabrication. The microfluidic device consists of a polydimethylsiloxane (PDMS) structure layer bonded to a coverslip. The PDMS structure layer is made by mixing PDMS curing agent and base polymer (Sylgard 184; Dow Coming) at a ratio of 1:10 before casting PDMS prepolymer onto a microfabricated silicon mold and baking at 110° C. for 40 min. Medium reservoirs (8 mm in diameter) and gel-loading ports (1.2 mm in diameter) were then punched into the PDMS structure layer using Harris Uni-Core punch tools (Ted Pella). After cleaning with ethanol and air plasma activation, the PDMS structure layer was bonded to a coverslip before baking at 80° C. overnight. Before usage, the microfluidic device was sterilized under UV light for 30 min. […]

## Cc1ccc2nc(NC(=O)CSc3nc4c(c(=O)n3-c3ccccc3)SCC4)sc2c1 [IWP2]
[1]
  Differentiation of posterior primitive streak-like cells: inhibited
[2]; IWR1 10 μM or IWP2 5 μM
  Inhibition of induction of MeLC in posteriorized embryonic-like sac: inhibited
[2]; supplemented in the induction channel (IWP2 5 μM, IWR1 10 μM, noggin 50 ng ml^−1), BMP4 in cell-loading channel
  Inhibition of PrePS-EPI-like cell development: completely inhibited
